Reference: PubChem BioAssay AID328 (DTP/NCI, 2004)
Values joined by “and” are separate entries in the source; they are usually repeats but may differ in a detail not shown here. Equal values may be shown once. Inconclusive results and toxic doses are left out. Positions of bridges follow the written chain, without caps; N, C: chain ends. Non-standard residues stand in square brackets, D forms with d. Residues, ends and D or L forms follow the SMILES beside them. Chains are numbered I, II in the order given. *: point of attachment. Quinoxaline2carbonyl = O=C(c1cnc2ccccc2n1)*; NMeV = CN[CH](C(=O)O)C(C)C; NMeC = CN[CH](CS)C(=O)O; Nle = CCCC[CH](N)C(=O)O; Cbz = O=C(OCc1ccccc1)*; OBn = c1ccc(CO*)cc1

System: BDF1 mice, P388 leukemia ip, median survival T/C
Test: NCI In Vivo Anticancer Drug Screen. Data for tumor model P388 Leukemia (intraperitoneal) in B6D2F1 (BDF1) mice
Conditions: endpoint: median survival time, higher = longer survival
In short: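 In tumour-bearing mice, survival after compound treatment is set against the vehicle group and given as a quotient.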

[1] = dose: 25.0 mg/kg/injection, schedule: Q04DX003 (ip), vehicle: saline
[2] = dose: 50.0 mg/kg/injection, schedule: Q04DX003 (ip), vehicle: saline
[3] = dose: 100.0 mg/kg/injection, schedule: Q04DX003 (ip), vehicle: saline
[4] = dose: 200.0 mg/kg/injection, schedule: Q04DX003 (ip), vehicle: saline
[5] = dose: 50.0 mg/kg/injection, schedule: Q01DX009 (ip), vehicle: saline with Tween-80
[6] = dose: 100.0 mg/kg/injection, schedule: Q01DX009 (ip), vehicle: saline with Tween-80
[7] = dose: 100.0 mg/kg/injection, schedule: Q04DX003 (ip), vehicle: saline with Tween-80
[8] = dose: 200.0 mg/kg/injection, schedule: Q01DX009 (ip), vehicle: saline with Tween-80
[9] = dose: 200.0 mg/kg/injection, schedule: Q04DX003 (ip), vehicle: saline with Tween-80
[10] = dose: 50.0 mg/kg/injection, schedule: Q01DX005 (ip), vehicle: saline with Tween-80
[11] = dose: 100.0 mg/kg/injection, schedule: Q01DX005 (ip), vehicle: saline with Tween-80
[12] = dose: 25.0 mg/kg/injection, schedule: Q01DX009 (ip), vehicle: saline with Tween-80

For `CCOC(=O)/C=C(\C)OCC`, the T/C (dose: 25.0 mg/kg/injection, schedule: Q01DX009 (ip), vehicle: saline) was 104 % of control, the T/C [1] was 92 % of control and 111 % of control and the T/C (dose: 50.0 mg/kg/injection, schedule: Q01DX009 (ip), vehicle: saline) was 101 % of control. The T/C [2] was 94 % of control and 114 % of control, the T/C (dose: 100.0 mg/kg/injection, schedule: Q01DX009 (ip), vehicle: saline) was 90 % of control and the T/C [3] was 100 % of control. The T/C (dose: 200.0 mg/kg/injection, schedule: Q01DX009 (ip), vehicle: saline) was 109 % of control, the T/C [4] was 98 % of control and 106 % of control and the T/C (dose: 400.0 mg/kg/injection, schedule: Q01DX009 (ip), vehicle: saline) was 95 % of control. The T/C (dose: 400.0 mg/kg/injection, schedule: Q04DX003 (ip), vehicle: saline) was 97 % of control and 104 % of control.

For `C(=Nc1ccccc1)c1ccc(C=Nc2ccccc2)cc1`, the T/C [5] was 110 % of control, the T/C [6] was 105 % of control and the T/C [7] was 104 % of control. For the same compound, the T/C [8] was 100 % of control, the T/C [9] was 109 % of control and the T/C (dose: 400.0 mg/kg/injection, schedule: Q04DX003 (ip), vehicle: saline with Tween-80) was 100 % of control.

For `O=C1C=CC(=O)N1c1ccc(-c2nc3ccccc3o2)cc1`, the T/C [10] was 121 % of control and the T/C [11] was 100 % of control.

`Nc1cc(=O)[nH]n1-c1ccccc1` was tested, and the T/C [5] was 101 % of control, the T/C [6] was 103 % of control and the T/C [8] was 98 % of control.

`COC1c2cnc(C)n2C=CN1C(C)=O` (stereo not given) was tested, and the T/C [3] was 99 % of control, the T/C [4] was 104 % of control and the T/C (dose: 300.0 mg/kg/injection, schedule: Q04DX003 (ip), vehicle: saline) was 94 % of control.

`CCCCC(NC(=O)C1CCCN1C(=O)OCc1ccccc1)C(=O)OCc1ccccc1` (stereo not drawn) (Cbz-Pro-[Nle]-OBn; configuration not given here) was tested, and the T/C [10] was 88 % of control, the T/C [11] was 101 % of control and the T/C (dose: 200.0 mg/kg/injection, schedule: Q01DX005 (ip), vehicle: saline with Tween-80) was 97 % of control.

In the case of `OC1c2ccccc2C=Cc2ccccc21`, the T/C (dose: 25.0 mg/kg/injection, schedule: Q01DX001 (ip), vehicle: saline sonified) is reported as 104 % of control, the T/C (dose: 50.0 mg/kg/injection, schedule: Q01DX001 (ip), vehicle: saline sonified) is reported as 104 % of control and the T/C (dose: 100.0 mg/kg/injection, schedule: Q01DX001 (ip), vehicle: saline sonified) is reported as 100 % of control.

For `S=c1[nH]nc2ccccn12`, the T/C [5] was 102 % of control, the T/C [6] was 100 % of control and the T/C [8] was 102 % of control.

For `Cn1cnc([N+](=O)[O-])c1Sc1nc(N)nc2c1ncn2C1OC(CO)C(O)C1O` (stereo not given), the T/C (dose: 7.0 mg/kg/injection, schedule: Q04DX003 (ip), vehicle: saline) was 163 % of control, the T/C (dose: 7.03 mg/kg/injection, schedule: Q01DX009 (ip), vehicle: saline) was 120 % of control and the T/C (dose: 9.2 mg/kg/injection, schedule: Q01DX009 (ip), vehicle: saline) was 163 % of control. The T/C (dose: 14.06 mg/kg/injection, schedule: Q01DX009 (ip), vehicle: saline) was 163 % of control, the T/C (dose: 16.0 mg/kg/injection, schedule: Q04DX003 (ip), vehicle: saline) was 168 % of control and 172 % of control and the T/C (dose: 21.0 mg/kg/injection, schedule: Q01DX009 (ip), vehicle: saline) was 95 % of control. The T/C [1] was 161 % of control and 168 % of control, the T/C (dose: 56.25 mg/kg/injection, schedule: Q01DX009 (ip), vehicle: saline) was 100 % of control and the T/C (dose: 150.0 mg/kg/injection, schedule: Q04DX003 (ip), vehicle: saline) was 104 % of control and 113 % of control. For the same compound, the T/C (dose: 225.0 mg/kg/injection, schedule: Q04DX003 (ip), vehicle: saline) was 109 % of control and the T/C (dose: 335.0 mg/kg/injection, schedule: Q04DX003 (ip), vehicle: saline) was 109 % of control.

`CCCCN(CCCC)CCNc1ccc(Cl)c2oc3cc(C)ccc3c(=O)c12` was tested, and the T/C [5] was 100 % of control, the T/C [6] was 104 % of control and the T/C [7] was 100 % of control. For the same compound, the T/C [8] was 104 % of control and the T/C [9] was 100 % of control.

`c1ccc(C(NC2CC3CCC2C3)c2ccccc2)cc1` (stereo not given) was tested, and the T/C [2] was 108 % of control, the T/C [3] was 108 % of control and the T/C [4] was 108 % of control.

`CC1NC(=O)C(NC(=O)c2cnc3ccccc3n2)COC(=O)C(C(C)C)N(C)C(=O)C2CSSCC(C(=O)N(C)C(C(C)C)C(=O)OCC(NC(=O)c3cnc4ccccc4n3)C(=O)NC(C)C(=O)N2C)N(C)C1=O` (stereo not given) (I: Quinoxaline2carbonyl-SA[NMeC][NMeV] / II: Quinoxaline2carbonyl-SA[NMeC][NMeV]; ester I:1-II:C, I:C-II:1; disulfide I:3-II:3; configuration not given here) was tested, and the T/C (dose: 11.0 micrograms/kg/injection, schedule: Q01DX009 (ip), vehicle: saline) was 124 % of control, the T/C (dose: 22.5 micrograms/kg/injection, schedule: Q01DX009 (ip), vehicle: saline) was 115 % of control and the T/C (dose: 45.0 micrograms/kg/injection, schedule: Q01DX009 (ip), vehicle: saline) was 113 % of control. The T/C (dose: 90.0 micrograms/kg/injection, schedule: Q01DX009 (ip), vehicle: saline) was 200 % of control.

In the case of `CC1CN1CCS(=O)(=O)CCN1CC1C` (stereo not given), the T/C (dose: 22.0 mg/kg/injection, schedule: Q04DX003 (ip), vehicle: saline) is reported as 105 % of control, the T/C (dose: 33.0 mg/kg/injection, schedule: Q04DX003 (ip), vehicle: saline) is reported as 100 % of control and the T/C [2] is reported as 111 % of control. The T/C (dose: 75.0 mg/kg/injection, schedule: Q04DX003 (ip), vehicle: saline) was 122 % of control, the T/C (dose: 150.0 mg/kg/injection, schedule: Q01DX009 (ip), vehicle: other) was 163 % of control and the T/C (dose: 225.0 mg/kg/injection, schedule: Q01DX009 (ip), vehicle: other) was 209 % of control.

`N=C1N=C(C(F)(F)F)N=C1c1[nH]c(C(F)(F)F)nc1N` was tested, and the T/C (dose: 3.12 mg/kg/injection, schedule: Q01DX009 (ip), vehicle: water) was 105 % of control, the T/C (dose: 6.25 mg/kg/injection, schedule: Q01DX009 (ip), vehicle: water) was 105 % of control and the T/C (dose: 12.5 mg/kg/injection, schedule: Q01DX009 (ip), vehicle: water) was 113 % of control. The T/C (dose: 25.0 mg/kg/injection, schedule: Q01DX009 (ip), vehicle: water) was 103 % of control and 105 % of control, the T/C (dose: 25.0 mg/kg/injection, schedule: Q04DX003 (ip), vehicle: water) was 100 % of control and the T/C (dose: 50.0 mg/kg/injection, schedule: Q01DX009 (ip), vehicle: water) was 92 % of control. For the same compound, the T/C (dose: 50.0 mg/kg/injection, schedule: Q04DX003 (ip), vehicle: water) was 99 % of control, the T/C (dose: 100.0 mg/kg/injection, schedule: Q01DX009 (ip), vehicle: water) was 106 % of control and the T/C (dose: 100.0 mg/kg/injection, schedule: Q04DX003 (ip), vehicle: water) was 98 % of control. For the same compound, the T/C (dose: 200.0 mg/kg/injection, schedule: Q01DX009 (ip), vehicle: water) was 97 % of control, the T/C (dose: 200.0 mg/kg/injection, schedule: Q04DX003 (ip), vehicle: water) was 94 % of control and the T/C (dose: 400.0 mg/kg/injection, schedule: Q01DX009 (ip), vehicle: water) was 104 % of control. For the same compound, the T/C (dose: 400.0 mg/kg/injection, schedule: Q04DX003 (ip), vehicle: water) was 109 % of control.

In the case of `CN(C)c1ccc(/C=N/Nc2ccc(C(C#N)=C(C#N)C#N)cc2)cc1`, the T/C [5] is reported as 101 % of control, the T/C [6] is reported as 89 % of control and the T/C [8] is reported as 86 % of control.

`CC(C)(CO)COC(=O)NC1=C(N2CC2)C(=O)C(NC(=O)OCC(C)(C)CO)=C(N2CC2)C1=O` was tested, and the T/C (dose: 0.75 mg/kg/injection, schedule: Q01DX009 (ip), vehicle: water) was 151 % of control and 157 % of control, the T/C (dose: 1.5 mg/kg/injection, schedule: Q01DX009 (ip), vehicle: water) was 159 % of control and 178 % of control and the T/C (dose: 3.0 mg/kg/injection, schedule: Q01DX009 (ip), vehicle: water) was 181 % of control and 200 % of control. The T/C (dose: 6.0 mg/kg/injection, schedule: Q01DX009 (ip), vehicle: water) was 231 % of control and 205 % of control and the T/C (dose: 12.0 mg/kg/injection, schedule: Q01DX009 (ip), vehicle: water) was 232 % of control and 312 % of control.

In the case of `O=C1NC(Cc2ccccc2)C(=O)NC1Cc1ccccc1` (stereo not given), the T/C (dose: 6.25 mg/kg/injection, schedule: Q01DX009 (ip), vehicle: saline with Tween-80) is reported as 106 % of control, the T/C (dose: 12.5 mg/kg/injection, schedule: Q01DX009 (ip), vehicle: saline with Tween-80) is reported as 101 % of control and the T/C [12] is reported as 108 % of control.

With `CC1=NC2=NC(CCCC(=O)Nc3ccc(Cl)cc3)=NC3=CC=CC(=N1)N32` the T/C [12] was 104 % of control, the T/C [5] was 95 % of control and the T/C [6] was 99 % of control.

In the case of `C=CCOc1ccccc1OC`, the T/C [12] is reported as 100 % of control, the T/C [5] is reported as 113 % of control and the T/C [6] is reported as 107 % of control and 113 % of control. The T/C [7] was 100 % of control, the T/C [8] was 100 % of control and the T/C [9] was 113 % of control.
